PMC5054364, “Neuroprotective pentapeptide CN-105 improves functional and histological outcomes in a murine model of intracerebral hemorrhage” (Scientific Reports, 2016)

Key:
[1] = CN-105 pharmacokinetics in brain and plasma (LC/MS); assay type: in vivo; settings: mice
Text: One rationale for creating the smaller apoE mimetic peptides was to enhance CNS penetration and possibility of noninvasive mechanisms of delivery (for example, intranasal). To define pharmacokinetic parameters, we performed initial non-GLP studies in mice using stable radioisotope labeled CN-105 peptide (MW of heavy CN-105 was 362.7 vs. 357.7). […] The total CNS exposure was 44%; of note, this is approximately 5 fold higher than prior apoE based mimetic peptides.
Experiment 1. CN-105 pharmacokinetics in Brain and Plasma. The concentration of CN-105 was determined at 1, 3, 10, 15, 30 and 60 minutes (n = 5/time point) post injection using LC/MS.
A protocol was developed in collaboration with the Duke University Core Proteomics and Metabolomics Shared Resource using LC/MS on a high-resolution accurate-mass instrument. […] After extraction, samples were dried down in Speed Vac and reconstituted in 25 uL of 1% ACN/0.1% TFA/0.02% HFBA and analyzed using a nanoAcquity LC (Waters) coupled to a Synapt G2 Q-ToF (Waters). Quantitative data was extracted as selected ion chromatograms for both the native ((M + 2H)^2+at m/z 357.7 and heavy-labeled form CN-105 at m/z 362.7). Quantitation was accomplished by using a ratio of the peak area of the analyte and internal standard which was fit to a 7-point calibration curve (plasma R^2 = 0.997 and brain R^2 = 0.999).

[2] = test system: murine model of collagenase-induced ICH; test: Brain water content (cerebral edema) after ICH; assay type: in vivo, C57BL/6J mice; settings: 24 hours after injury, 0.05 mg/kg i.v. at 2, 6 and 24 hours post ICH, mean ± standard error, n = 6–8/group
Experimental: Experiment 3. Brain water content. Brain water content was assessed at 24 hours post ICH in 8 saline- and 8 CN-105-treated animals. CN-105 or saline was given by tail vein injection at 2, 6, and 24 hours post ICH. Two animals randomized to CN-105 died at 4 and 6 hours post-ICH, and were excluded from further analyses.
Intrastriatal collagenase injection was used to induce ICH in mice, as previously described. Briefly, the trachea was intubated after anesthesia induction with 4.6% isoflurane, and the lungs were mechanically ventilated with 1.5% isoflurane in a mixture of 30%/70% O2/N2. Rectal temperature was maintained at 37 °C ± 0.2 °C by circulating warm water in an underbody waterbed. The animal’s head was secured in a stereotactic frame, and a midline scalp incision was made. After exposing the skull, a burr hole was created 2.2 mm left lateral to bregma, and a 0.5 μL syringe needle (Hamilton, Reno, NV, USA) was advanced to a depth of 3 mm from cortex. Type IV-S Clostridial collagenase (Sigma, St. Louis, MO, USA) was injected over 2 minutes (0.075 U in 0.4 μL normal saline). […]
Mice were anesthetized and euthanized at 24 hours after ICH to coincide with the point of maximum inflammatory changes. […] Cerebral edema was expressed as water content, calculated as a percentage of wet weight ([wet weight - dry weight]/[wet weight] x 100).

[3] = test system: murine model of collagenase-induced ICH; test: Neuroseverity score after ICH; assay type: in vivo, C57BL/6J mice; settings: 0.05 mg/kg i.v. at 4, 8 and 24 hours post ICH; p = 0.12; n = 14/group
Experimental: Experiment 4. Neurobehavioral assessment. Animals were randomized to vehicle (n = 14) or CN-105 (n = 14) groups, and evaluated for neurobehavioral function (neuroscore), vestibulomotor function (rotarod), and spatial learning (MWM). Mice received tail vein injections of vehicle or CN105 at 4, 8, and 24 hours post ICH.
(§1) Intrastriatal collagenase injection was used to induce ICH in mice, as previously described. Briefly, the trachea was intubated after anesthesia induction with 4.6% isoflurane, and the lungs were mechanically ventilated with 1.5% isoflurane in a mixture of 30%/70% O2/N2. Rectal temperature was maintained at 37 °C ± 0.2 °C by circulating warm water in an underbody waterbed. The animal’s head was secured in a stereotactic frame, and a midline scalp incision was made. After exposing the skull, a burr hole was created 2.2 mm left lateral to bregma, and a 0.5 μL syringe needle (Hamilton, Reno, NV, USA) was advanced to a depth of 3 mm from cortex. Type IV-S Clostridial collagenase (Sigma, St. Louis, MO, USA) was injected over 2 minutes (0.075 U in 0.4 μL normal saline). After closing the incision, animals were allowed to recover spontaneous ventilation, and were then extubated and given free access to food and water.
CN-105 (Ac-VSRRR-amide) was synthesized by Polypeptide Inc. (San Diego, CA) to a purity of >99%, and was dissolved in normal saline. […]

[4] = test system: murine model of collagenase-induced ICH; test: NeuN neuronal survival, stereology after ICH; assay type: in vivo, C57BL/6J mice; settings: ipsilateral, 33 days post ICH, 0.05 mg/kg i.v. at 4, 8 and 24 hours, n = 7/group
Text: Experiment 6. Neuronal survival. The hippocampus has been associated with spatial learning and memory. To determine whether histological outcome correlates with functional outcomes, neuronal density was quantified in the hippocampus and striatum of the mice (n = 7/group) in experiment 4 by stereology at 33 days post-ICH following MWM testing.
as §1
CN-105 (Ac-VSRRR-amide) was synthesized by Polypeptide Inc. (San Diego, CA) to a purity of >99%, and was dissolved in normal saline. Using a murine model of traumatic brain injury, 0.05 mg/kg CN-105 was previously found to be the lowest dose that improved functional performance after injury (data not shown). Here, therefore, 100 μL 0.05 mg/kg CN-105 in saline, or vehicle, was administered via intravenous tail vein injection 3 times at pre-specified timepoints after ICH. Animals were gently restrained by a rodent restrainer (Harvard Apparatus, Holliston, MA) during each administration.
After anesthetic induction, mice underwent transcardial perfusion with 30 mL normal saline. […] Cells were counted using a Nikon 218912 light microscope interfaced with the StereoInvestigator software package (MicroBrightField, Williston, VT, USA). […]

Substance: Ac-VSRRR-NH2 [CN-105, Ac-VSRRR-amide]
- AUC0–60 in brain ([1]; brain homogenate (urea in buffer), 0-60 minutes post injection, n = 5/time point, LC/MS): 548 fmol·min/µL
- total CNS exposure ([1]; brain versus plasma AUC0–60): 44%
- AUC0–60 in plasma ([1]; plasma, 0-60 minutes post injection, n = 5/time point, LC/MS): 1253 fmol·min/µL
- half-life ([1]; mouse, non-GLP study, stable isotope labeled CN-105, plasma sampled 1-60 minutes post injection, n = 5/time point, LC/MS, read-out: terminal plasma half-life): 27 min
- brain water content, contralateral hemisphere ([2]; p = 0.64): 78.70 ± 0.41%
- brain water content, injured hemisphere ([2]; vehicle 80.67 ± 0.26, p = 0.029): 79.57 ± 0.38%
- neuroseverity scores, Day 1 to Day 5 after ICH versus vehicle [3]: mild but not significant improvement
- NeuN-positive cell numbers, striatum ([4]; vehicle 25142 ± 5777, p = 0.27): 21816 ± 5073 cells/mm^3
- NeuN-positive cell numbers, dentate gyrus polymorphic region ([4]; vehicle 34919 ± 9378, p = 0.16): 42109 ± 8439 cells/mm^3
- NeuN-positive cell numbers, CA3 region ([4]; vehicle 188719 ± 4780, p = 0.009): 225773 ± 10841 cells/mm^3
